# Literature values, collected in PubChem BioAssay AID1259409 (Chemical Carcinogenesis Research Information System (CCRIS), 2018).
# System: rodent chemically induced tumor inhibition, incidence and multiplicity
# Test: CCRIS tumor inhibitor studies
# Settings: Carcinogen: 7,12-DIMETHYLBENZ[A]ANTHRACENE, 57-97-6, Route [Inhibitor]: ORAL, Promoter: NONE USED
smiles,measurement,setting,value
O=[Se](O)O,"tumour outcome (control, treated, inhibition, significance)","Dose [Inhibitor]: 1 PPM IN DIET DAILY STARTING 1 WK PRIOR TO CARCINOGEN TREATMENT AND CONTINUING FOR DURATION OF STUDY (STUDY DURATION: 9, Species: MOUSE, Strain/Sex: BD2F1/FEMALE, Target Tissue: Type of Lesion: MAMMARY GLAND: TUMOR, Dose [Carcinogen]: 1 MG IN 0.2 ML COTTONSEED OIL 1/WK FOR 6 WK STARTING AT 8 WK OF AGE","18/32 (56%), 8/32 (25%), 55%, not calculated"
same,"tumour outcome (control, treated, inhibition, significance)","Dose [Inhibitor]: 1.5 PPM IN 5% CORN OIL DIET DAILY STARTING 29 D BEFORE CARCINOGEN TREATMENT AND CONTINUING FOR DURATION OF STUDY (STUDY, Species: RAT, Strain/Sex: SPRAGUE-DAWLEY/FEMALE, Target Tissue: Type of Lesion: MAMMARY GLAND: ADENOCARCINOMA, Dose [Carcinogen]: 5 MG IN CORN OIL ONCE AT 50 D OF AGE","12/30 (40%), 9/31 (29%), 28%, not significant"
same,"tumour outcome (control, treated, inhibition, significance)","Dose [Inhibitor]: 1.5 PPM IN 25% CORN OIL DIET DAILY STARTING 29 D BEFORE CARCINOGEN TREATMENT AND CONTINUING FOR DURATION OF STUDY (STUDY, Species: RAT, Strain/Sex: SPRAGUE-DAWLEY/FEMALE, Target Tissue: Type of Lesion: MAMMARY GLAND: ADENOCARCINOMA, Dose [Carcinogen]: 5 MG IN CORN OIL ONCE AT 50 D OF AGE","21/30 (70%), 16/29 (55%), 21%, not significant"
same,"tumour outcome (control, treated, inhibition, significance)","Dose [Inhibitor]: 2 PPM IN DIET DAILY STARTING 1 WK PRIOR TO CARCINOGEN TREATMENT AND CONTINUING FOR DURATION OF STUDY (STUDY DURATION: 9, Species: MOUSE, Strain/Sex: BALB/FEMALE, Target Tissue: Type of Lesion: MAMMARY GLAND: TUMOR, Dose [Carcinogen]: 1 MG IN 0.2 ML COTTONSEED OIL 1/WK FOR 6 WK STARTING AT 8 WK OF AGE","11/28 (39%), 2/28 (7%), 82%, not calculated"
same,"tumour outcome (control, treated, inhibition, significance)","Dose [Inhibitor]: 2 PPM IN DIET DAILY STARTING 1 WK PRIOR TO CARCINOGEN TREATMENT AND CONTINUING FOR DURATION OF STUDY (STUDY DURATION: 9, Species: MOUSE, Strain/Sex: BD2F1/FEMALE, Target Tissue: Type of Lesion: MAMMARY GLAND: TUMOR, Dose [Carcinogen]: 1 MG IN 0.2 ML COTTONSEED OIL 1/WK FOR 6 WK STARTING AT 8 WK OF AGE","18/32 (56%), 5/32 (16%), 71%, not calculated"
same,"tumour outcome (control, treated, inhibition, significance)","Dose [Inhibitor]: 2.5 MG/KG DIET DAILY STARTING 2 WK BEFORE CARCINOGEN TREATMENT AND CONTINUING FOR DURATION OF STUDY (STUDY DURATION: 26, Species: RAT, Strain/Sex: SPRAGUE-DAWLEY/FEMALE, Target Tissue: Type of Lesion: MAMMARY GLAND: ADENOCARCINOMA, Dose [Carcinogen]: 10 MG ONCE AT 50 D OF AGE","23/25 (92%), 18/25(72%), 22%, not significant"
same,"tumour outcome (control, treated, inhibition, significance)","Dose [Inhibitor]: 2.5 MG/KG DIET DAILY STARTING 2 WK BEFORE CARCINOGEN TREATMENT AND CONTINUING FOR DURATION OF STUDY (STUDY DURATION: 27, Species: RAT, Strain/Sex: SPRAGUE-DAWLEY/FEMALE, Target Tissue: Type of Lesion: MAMMARY GLAND: ADENOCARCINOMA, Dose [Carcinogen]: 10 MG ONCE AT 50 D OF AGE","28/30 (93%), 23/30(77%), 17%, not significant"
same,"tumour outcome (control, treated, inhibition, significance)","Dose [Inhibitor]: 2.5 PPM IN 5% CORN OIL DIET DAILY STARTING 29 D BEFORE CARCINOGEN TREATMENT AND CONTINUING FOR DURATION OF STUDY (STUDY, Species: RAT, Strain/Sex: SPRAGUE-DAWLEY/FEMALE, Target Tissue: Type of Lesion: MAMMARY GLAND: ADENOCARCINOMA, Dose [Carcinogen]: 5 MG IN CORN OIL ONCE AT 50 D OF AGE","12/30 (40%), 7/29 (24%), 40%, not significant"
same,"tumour outcome (control, treated, inhibition, significance)","Dose [Inhibitor]: 2.5 PPM IN 5% CORN OIL DIET DAILY STARTING 29 D BEFORE CARCINOGEN TREATMENT AND CONTINUING FOR DURATION OF STUDY (STUDY, Species: RAT, Strain/Sex: SPRAGUE-DAWLEY/FEMALE, Target Tissue: Type of Lesion: MAMMARY GLAND: ADENOCARCINOMA, Dose [Carcinogen]: 10 MG IN CORN OIL ONCE AT 50 D OF AGE","21/30 (70%), 13/29 (45%), 36%, p<0.05"
same,"tumour outcome (control, treated, inhibition, significance)","Dose [Inhibitor]: 2.5 PPM IN 5% CORN OIL DIET DAILY STARTING AT WEANING AND CONTINUING FOR DURATION OF STUDY (STUDY DURATION: 25 WK), Species: RAT, Strain/Sex: SPRAGUE-DAWLEY/FEMALE, Target Tissue: Type of Lesion: MAMMARY GLAND: ADENOCARCINOMA, Dose [Carcinogen]: 5 MG ONCE AT AGE 50 D","40%, 24%, 40%, not calculated"
same,"tumour outcome (control, treated, inhibition, significance)","Dose [Inhibitor]: 2.5 PPM IN 25% CORN OIL DIET DAILY STARTING 29 D BEFORE CARCINOGEN TREATMENT ANDCONTINUING FOR DURATION OF STUDY (STUDY, Species: RAT, Strain/Sex: SPRAGUE-DAWLEY/FEMALE, Target Tissue: Type of Lesion: MAMMARY GLAND: ADENOCARCINOMA, Dose [Carcinogen]: 5 MG IN CORN OIL ONCE AT 50 D OF AGE","21/30 (70%), 10/30 (33%), 53%, p<0.01"
same,"tumour outcome (control, treated, inhibition, significance)","Dose [Inhibitor]: 2.5 PPM IN 25% CORN OIL DIET DAILY STARTING AT WEANING AND CONTINUING FOR DURATION OF STUDY (STUDY DURATION: 25 WK), Species: RAT, Strain/Sex: SPRAGUE-DAWLEY/FEMALE, Target Tissue: Type of Lesion: MAMMARY GLAND: ADENOCARCINOMA, Dose [Carcinogen]: 5 MG ONCE AT AGE 50 D","70%, 33%, 53%, not calculated"
same,"tumour outcome (control, treated, inhibition, significance)","Dose [Inhibitor]: 2.5 PPM IN HIGH-SATURATED FAT DIET CONTAINING 1% CORN OIL AND 24% HYDROGENATED COCONUT OIL DAILY STARTING AT WEANING AND, Species: RAT, Strain/Sex: SPRAGUE-DAWLEY/FEMALE, Target Tissue: Type of Lesion: MAMMARY GLAND: TUMOR, Dose [Carcinogen]: 5 MG ONCE AT AGE 50 D","7/25 (28%), 5/25 (20%), 29%, not significant"
same,"tumour outcome (control, treated, inhibition, significance)","Dose [Inhibitor]: 2.5 PPM IN HIGH-SATURATED FAT DIET CONTAINING 1% CORN OIL AND 24% HYDROGENATED COCONUT OIL DAILY STARTING AT WEANING AND, Species: RAT, Strain/Sex: SPRAGUE-DAWLEY/FEMALE, Target Tissue: Type of Lesion: MAMMARY GLAND: TUMOR, Dose [Carcinogen]: 10 MG ONCE AT AGE 50 D","16/25 (64%), 8/24 (33%), 48%, p<0.05"
same,"tumour outcome (control, treated, inhibition, significance)","Dose [Inhibitor]: 4 MG/KG DIET DAILY FOR 28 WK STARTING 2 WK BEFORE START OF CARCINOGEN TREATMENT AND CONTINUING FOR DURATION OF STUDY (ST, Species: RAT, Strain/Sex: SPRAGUE-DAWLEY/FEMALE, Target Tissue: Type of Lesion: MAMMARY GLAND: TUMOR, Dose [Carcinogen]: 5 MG IN CORN OIL 1/WK FOR 3 WK","90%, 53%, 41%, p<0.01"
